The structures appear in SMILES notation.

As a reminder, the pKa is the negative logarithm of the acid dissociation constant. A higher pKa goes with a weaker acid or stronger base.

For the molecule `O=C(O)[C@H]1[C@@H]2C=C[C@H]1CC2`, the pKa (acidic group) stood at 4.58.
Where the note is “basic group”, `[O-]c1ccc2ccccc2n1` returned a pKa of 11.7.
Regarding `Cc1cc([N+](=O)[O-])ccc1NN=C(C#N)C#N`, the pKa was 5.5 (acidic group) and -0.74 (basic group).
On to `O=[N+]([O-])c1ccc([O-])c(CN2CCOCCOCCOCCOCCOCC2)c1`, for which the pKa (basic group) came to 9.59.
Still for that read-out and setting: in the case of `NCCCCN` it was 10.6.
On to `C1CN2CCCN2C1`, for which the pKa (basic group) is 7.95.
On the same count and under the same terms, in the case of `CC[NH+](CC)CCOCCN(C)C` it was 8.4.
In turn, `O=C1NC(=O)C2(CCOc3ccc(F)cc32)N1` (stereo not drawn) displayed a pKa (acidic group) of 8.3.
Molecule `c1ccc(CSc2cnn[nH]2)cc1` yielded a pKa (acidic group) of 8.2.
For `CCC(N)CO` (stereo not drawn), for the setting “basic group”, the pKa is 9.53.
For `CCOCC(=O)O`, under “acidic group”, the pKa stood at 3.61.
As for `CCCC[NH2+]CCC(=O)O`, the pKa (acidic group) amounted to 3.57.
With `O=Cc1cccc(Cl)c1O`, where the note is “acidic group”, the pKa was 6.61.
On the same count and under the same terms, to `Oc1ccc(/N=N/c2ccccc2)cc1` belongs 8.44; to `O=C(O)C[NH+](CC(=O)O)Cc1cc(Cl)cc(C[NH+](CC(=O)O)CC(=O)O)c1O`, 2.
Turning to `COc1ncnc2nc[nH]c12`, the pKa is 9.16 (acidic group) and 2.21 (basic group).
Take `O=C1Cc2c1cc([N+](=O)[O-])c(O)c2Br`: the pKa (acidic group) was determined as 2.88.
For the molecule `Nc1cc(N2CCOCC2)nc(N)n1`, the pKa was -0.35 (acidic group) and 6.73 (basic group).
`C[n+]1c2ccccc2nc2c(O)cccc21` came in with a pKa (acidic group) of 4.85.
Under “basic group”, `Cn1c[nH+]c2cccc(N)c21` registered a pKa of 2.36.
For `N#Cc1c(-c2nc3ccccc3o2)c(=O)oc2cc(O)ccc12`, for the setting “acidic group”, the pKa was 6.07.
On the same count and under the same terms, in the case of `CC1=CC(=Nc2ccc(O)cc2)C=C(C)C1=O` it was 8.9.
Under “basic group”, `NCCCc1ccccn1` returned a pKa of 10.1.
The molecule `Cc1cccc(O)c1C` showed a pKa (acidic group) of 10.5.
The same measure, in the same setting: in the case of `Cc1ccc([N+](C)(C)O)cc1` it was 4.32.
In the case of `CN(CCC#N)CCC#N`, under “basic group”, the pKa stood at 4.24.
On the same count and under the same terms, in the case of `C=CC1CN2CCC1C[C@H]2C(=O)[O-]` (stereo partly drawn) it was 10.6; in that of `CCN(CC)C(C)O` (stereo not drawn), 10.2.
`O=C(O)CSc1ccccc1` returned a pKa (acidic group) of 3.52.
On the same count and under the same terms, in the case of `C[C@@H]1CCC[C@H](C(=O)O)C1` it was 4.88.
In turn, `[O-]c1ccnc([S-])[nH+]1` registered a pKa (basic group) of 7.75.
Turning to `O=C1C[C@H]2OCC(S(=O)(=O)[O-])=C3CN4CC[C@@]56c7ccccc7N1[C@@H]5[C@@H]2[C@@H]3C[C@@H]46`, where the note is “basic group”, the pKa came out at 7.54.
Still for that read-out and setting: to `NCCOCCO` belongs 9.43; to `O=C([O-])c1ccc2nc3ccccc3cc2c1`, 5.22.
`CCOP(=O)([O-])NS(=O)(=O)c1ccccc1` gave a pKa (acidic group) of 6.5.
On the same count and under the same terms, in the case of `CONc1cc(=O)n(C)c(=O)n1C` it was 10.6.
`Nc1ccc2cc3ccc(Cl)cc3nc2c1` had a pKa (basic group) of 7.26.
Molecule `CNc1nc(C)nc2nc[nH]c12` yielded a pKa (basic group) of 5.08.
Same read-out and setting: in the case of `NC1Cc2ccccc2C1` it was 9.55.
On the same count and under the same terms, in the case of `NCC(=O)C[NH3+]` it was 6.89.
Where the note is “acidic group”, `O=C(O)[C@H](O)c1ccc([N+](=O)[O-])cc1` returned a pKa of 2.99.
`O=[PH](O)C([NH2+]Cc1ccc[nH+]c1)c1ccccc1O` (stereo not drawn) had a pKa (acidic group) of 2.35.
On the same count and under the same terms, to `O=C(CC(=O)c1ccc([N+](=O)[O-])cc1)Nc1ccccc1` belongs 8.7.
`C=CC(C)(C)N(C)C(C)(C)C` showed a pKa (basic group) of 11.3.
With `OC[C@@H]1O[C@H](n2cnc3c2ncn2ccnc32)[C@@H](O)[C@H]1O`, the pKa (basic group) came out at 4.1.
Same read-out and setting: in the case of `[S-]c1ccnc([S-])[nH+]1` it was 6.46; in that of `N#CC(C#N)=NNc1ccc(C(=O)CCl)cc1`, -0.76; in that of `NCc1ccc(O)cc1`, 9.14.
Still for that read-out and setting: in the case of `CCOC(=O)CCCN` it was 9.71; in that of `CCC1=NCCC1`, 7.91.
On to `O=C1CSCC(=O)C1`, for which the pKa (acidic group) worked out at 4.34.
For the molecule `CNC(=O)c1ccncc1`, where the note is “basic group”, the pKa was 3.8.
`O=CCC=O` registered a pKa (acidic group) of 4.57.
Take `CCCc1cccnn1`: the pKa (basic group) was determined as 3.59.
Regarding `C[NH2+]CCNCC[NH3+]`, the pKa (basic group) was 4.64.
In the case of `O=C([O-])c1ccccc1-n1nc(O)cc1-c1ccccc1`, for the setting “acidic group”, the pKa came to 12.5.
Consider `Cc1cccc(N)c1-c1c(C)cccc1N`, for which the pKa (basic group) came to 3.7.
In the case of `O=C(O)C1(O)CCCC1`, the pKa (acidic group) was determined as 4.11.
Under “basic group”, `O[C@@H]1[C@H](O)[C@@H](n2cnc3cncnc32)OC[C@@H]1O` showed a pKa of 1.8.
`CCCCCCCCCCCCCCCC[NH+](CCCCCCCCCCCCCCCC)CCCn1ccnc1` returned a pKa (basic group) of 4.4.
As for `O=C(O)C[NH+](CC(=O)O)Cc1cc([N+](=O)[O-])ccc1O`, the pKa (acidic group) amounted to 2.4.
As to `C[NH+](C)CCc1nnn[nH]1`, the pKa was 4.59 (acidic group) and -2.8 (basic group).
Consider `Oc1ccc2cccc(Br)c2c1`, for which, under “acidic group”, the pKa is 8.94.
Take `NC(Cc1ccccc1)C(=O)[O-]` (stereo not drawn): the pKa (basic group) was 9.17.
Where the note is “acidic group”, `Cc1cc(C)c(C(=O)C(=O)O)c(C)c1` displayed a pKa of 1.34.
`O/N=C/c1ccnc2ccccc12` returned a pKa (acidic group) of 10.4 and a pKa (basic group) of 4.55.
As to `Cc1c[n+]([C@@H]2C[C@@H](O)[C@H](CO)O2)c(O)nc1NCCc1ccccc1`, the pKa (acidic group) stood at 3.83.
As to `Nc1ccc([I+]c2ccccc2)cc1`, the pKa (basic group) was determined as 1.66.

The values above are taken from the pKa sets of Baltruschat and Czodrowski (2020).
